Experiments:
Experiment in all cases: cell viability (% survival relative to DMSO control, bortezomib = 0%); higher = less cytotoxic
Conditions in all cases: 72 h
THP-1 = tested on: THP-1
Method in brief: (§1)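 Seeding density for each of the 10 AML and 5 CML cell lines was titrated to the linear growth range. Cells went into 384-well plates pre-printed in duplicate with compounds at 1, 10, 100, 1000 or 10000 nM and were held for 72 h at 37 °C with 5% CO2. CellTiter-Glo luminescence then provided the readout. Percent survival is expressed relative to vehicle at 100% and a 10 µM positive control at 0%, averaged over duplicates.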

BV-173 = tested on: BV-173
Method in brief: as §1

NOMO-1 = tested on: NOMO-1
Method in brief: as §1

MOLM-13 = tested on: MOLM-13
Method in brief: as §1

Row | SMILES | cell viability (THP-1; 1 nM) [%] | cell viability (THP-1; 10 nM) [%] | cell viability (THP-1; 100 nM) [%] | cell viability (THP-1; 1000 nM) [%] | cell viability (THP-1; 10000 nM) [%] | cell viability (BV-173; 1 nM) [%] | cell viability (BV-173; 10 nM) [%] | cell viability (BV-173; 100 nM) [%] | cell viability (BV-173; 1000 nM) [%] | cell viability (BV-173; 10000 nM) [%] | cell viability (NOMO-1; 1 nM) [%] | cell viability (NOMO-1; 10 nM) [%] | cell viability (NOMO-1; 100 nM) [%] | cell viability (NOMO-1; 1000 nM) [%] | cell viability (NOMO-1; 10000 nM) [%] | cell viability (MOLM-13; 1 nM) [%] | cell viability (MOLM-13; 10 nM) [%] | cell viability (MOLM-13; 100 nM) [%] | cell viability (MOLM-13; 1000 nM) [%] | cell viability (MOLM-13; 10000 nM) [%]
1 | C[C@]12CC[C@H](O)CC1=CC[C@@H]1[C@@H]2CC[C@]2(C)C(c3cccnc3)=CC[C@@H]12 [Abiraterone] | 99.4 | 102 | 104 | 113 | 108 | 91.8 | 96.8 | 93.5 | 116 | 108 | 106 | 104 | 97.6 | 112 | 108 | 113 | 122 | 111 | 117 | 69.9
2 | O=C(COc1ccc(C(=O)c2ccccc2)cc1)NC1CCN(Cc2ccccc2)CC1 [AdipoRon] | 96.2 | 98.8 | 102 | 91.6 | 104 | 84 | 105 | 96.7 | 87 | 52.9 | 102 | 107 | 96.3 | 96.7 | 91.1 | 94 | 106 | 93.6 | 105 | 76.5
3 | CCOC(=O)[C@H]1O[C@@H]1C(=O)N[C@@H](CC(C)C)C(=O)NCCC(C)C [Aloxistatin] | 104 | 110 | 96.9 | 95.2 | 95.7 | 96.7 | 118 | 105 | 96.7 | 91.5 | 96.2 | 109 | 100 | 96.2 | 24.4 | 102 | 109 | 116 | 96.1 | 62.8
4 | N[C@](CCCCB(O)O)(CCN1CCCCC1)C(=O)O [Arginase inhibitor 1] | 105 | 88.6 | 101 | 99 | 102 | 141 | 77 | 90.8 | 88.5 | 96.1 | 91.3 | 94.5 | 103 | 96.4 | 93.9 | 106 | 99.8 | 117 | 74.4 | 72
5 | Cc1noc2c1-c1ccccc1C(c1ccc(Cl)cc1)=N[C@H]2CC(N)=O [CPI-0610] | 103 | 95.9 | 88.6 | 51.1 | 40.2 | 92.3 | 87.8 | 83.4 | 33.5 | 10.9 | 102 | 96.3 | 79 | 33.6 | 11.7 | 74.3 | 88.2 | 73.5 | 5.96 | 3.86
6 | Nc1ccn([C@@H]2O[C@H](CO)[C@@H](O)[C@@H]2O)c(=O)n1 [Cytarabine] | 103 | 104 | 89.9 | 91.7 | 23.8 | 102 | 16.4 | 0.292 | -1.03 | 0.0249 | 107 | 105 | 89.6 | 78.1 | 9.44 | 112 | 86.4 | 45.7 | 4.2 | 0.262
7 | CCOc1ccc(Cc2cc([C@@H]3O[C@H](CO)[C@@H](O)[C@H](O)[C@H]3O)ccc2Cl)cc1 [Dapagliflozin] | 88.4 | 100 | 86.4 | 101 | 90.1 | 74.5 | 106 | 87 | 98.2 | 82 | 95.2 | 101 | 88.1 | 104 | 97 | 92.8 | 111 | 91.1 | 103 | 121
8 | CCN(CC)CCN(Cc1ccc(-c2ccc(C(F)(F)F)cc2)cc1)C(=O)Cn1c(SCc2ccc(F)cc2)nc(=O)c2c1CCC2 [Darapladib] | 107 | 98.8 | 100 | 96.3 | -0.44 | 100 | 88.7 | 94.3 | 79.1 | -0.184 | 98.6 | 98.8 | 97 | 93.8 | -0.418 | 123 | 94.6 | 88.2 | 83.8 | -0.315
9 | O=C(O)C(Cl)Cl [Dichloroacetate] | 100 | 98 | 103 | 95.8 | 102 | 96.9 | 91 | 103 | 95.7 | 93.9 | 101 | 98.9 | 102 | 102 | 103 | 95.9 | 99.5 | 97.7 | 89.4 | 102
10 | O=C1Oc2ccccc2C(=O)C1CC1C(=O)Oc2ccccc2C1=O (stereo not given) [Dicumarol] | 100 | 102 | 96.3 | 103 | 94.2 | 89.5 | 107 | 91.8 | 94.1 | 109 | 99.4 | 101 | 98.8 | 109 | 96.3 | 105 | 109 | 107 | 120 | 97.1
11 | CC12CCC(O)CC1CCC1C2CCC2(C)C(C3=CC(=O)OC3)CCC12O (stereo not given) [Digitoxigenin] | 108 | 104 | 77 | 18.9 | -0.987 | 106 | 95.9 | 86.2 | 2.96 | -1.17 | 110 | 96 | 109 | 11.3 | -1.17 | 68.7 | 116 | 54.5 | 0.802 | -1.32
12 | C[C@H]1O[C@@H](O[C@H]2[C@@H](O)C[C@H](O[C@H]3[C@@H](O)C[C@H](O[C@H]4CC[C@@]5(C)[C@H](CC[C@@H]6[C@@H]5C[C@@H](O)[C@]5(C)[C@@H](C7=CC(=O)OC7)CC[C@]65O)C4)O[C@@H]3C)O[C@@H]2C)C[C@H](O)[C@@H]1O [Digoxin] | 85.8 | 95.6 | 32.6 | 0.766 | -0.172 | 92.3 | 106 | 3.24 | -0.0612 | -0.063 | 97.9 | 105 | 60.3 | -0.211 | -0.0253 | 105 | 105 | 0.137 | -0.695 | 0.435
13 | O=c1c2ccccc2[se]n1-c1ccccc1 [Ebselen] | 94.9 | 95.1 | 93 | 98.7 | 81.8 | 90.5 | 101 | 84.4 | 106 | 83.8 | 93.7 | 103 | 97.3 | 94.3 | 102 | 104 | 97.9 | 108 | 92.5 | 115
14 | Clc1ccc(COC(Cn2ccnc2)c2ccc(Cl)cc2Cl)cc1 (stereo not given) [Econazole] | 102 | 94.9 | 95.7 | 87.9 | 62 | 114 | 92.6 | 84.2 | 70.1 | 43.1 | 105 | 84.8 | 98.2 | 93.2 | 89.1 | 79.3 | 140 | 84.8 | 58.7 | 29.2
15 | C#Cc1cnc(O)nc1O [Eniluracil] | 97.4 | 102 | 109 | 110 | 102 | 94.6 | 115 | 106 | 109 | 85.9 | 96.4 | 103 | 101 | 104 | 109 | 75.5 | 108 | 114 | 91.4 | 104
16 | CC(/C=C1\SC(=S)N(CC(=O)O)C1=O)=C\c1ccccc1 [Epalrestat] | 101 | 95.6 | 115 | 102 | 103 | 101 | 95.1 | 96.7 | 106 | 112 | 108 | 101 | 93.4 | 102 | 103 | 120 | 106 | 106 | 99.1 | 110
17 | CCOC(=O)[C@@]1(CCCCCCOc2ccc(Cl)cc2)CO1 [Etomoxir] | 98.3 | 105 | 97.3 | 96.4 | 102 | 94.8 | 105 | 88.8 | 64.8 | 57.8 | 99.5 | 101 | 104 | 92.1 | 102 | 134 | 99.7 | 93.1 | 92 | 93
18 | Cc1c(-c2ccccc2)oc2c(C(=O)OCCN3CCCCC3)cccc2c1=O.Cl [Flavoxate] | 93.5 | 97.7 | 93.5 | 96.6 | 109 | 86.9 | 100 | 95.6 | 94.1 | 97.9 | 93.8 | 105 | 99.3 | 97.1 | 99.6 | 92.9 | 107 | 95.4 | 92.6 | 81.6
19 | O=C(O)CCc1ccc(NCc2cccc(Oc3ccccc3)c2)cc1 [GW9508] | 95.1 | 101 | 104 | 111 | 111 | 92.9 | 112 | 97.1 | 124 | 135 | 92.8 | 96.6 | 108 | 108 | 104 | 98.9 | 91.7 | 92.1 | 89.6 | 104
20 | c1ccc2c(c1)OCC(=C1NCCN1)O2 [Idazoxan] | 104 | 107 | 83.3 | 91.4 | 103 | 87.3 | 108 | 80.7 | 89.3 | 73.2 | 98.9 | 104 | 94.4 | 92.2 | 89.3 | 97.2 | 109 | 95.1 | 89.5 | 102
21 | C[C@]12O[C@H](C[C@]1(O)CO)n1c3ccccc3c3c4c(c5c6ccccc6n2c5c31)CNC4=O [Lestaurtinib] | 94.4 | 105 | 87.2 | 46 | 0.505 | 93.9 | 65.2 | 28.2 | 22.5 | -0.238 | 100 | 92.3 | 68.1 | 9.73 | 0.0124 | 78.5 | 14.4 | -0.694 | 1.23 | -0.369
22 | O=C(O)c1nn(Cc2ccc(Cl)cc2Cl)c2ccccc12 [Lonidamine] | 107 | 97 | 102 | 99.3 | 101 | 104 | 89.4 | 108 | 90.1 | 94.5 | 96.7 | 99.9 | 107 | 106 | 105 | 102 | 113 | 116 | 91.3 | 98.4
23 | C1CCc2nnc(C34CC5CC(CC(C5)C3)C4)n2CC1 [MERCK-544] | 102 | 107 | 93.7 | 102 | 91.1 | 107 | 66.3 | 85.7 | 94.7 | 92.2 | 102 | 95.8 | 89.3 | 97.4 | 109 | 97.3 | 126 | 115 | 80.7 | 118
24 | CC(Cc1ccc(O)c(O)c1)C(C)Cc1ccc(O)c(O)c1 (stereo not given) [Masoprocol] | 95.4 | 98.4 | 96.2 | 93.4 | 85.9 | 104 | 88.1 | 101 | 104 | 5.25 | 97 | 104 | 101 | 111 | 56.2 | 98.4 | 106 | 110 | 91.2 | 65.8
25 | CC(C(=O)O)C(=O)O [Methylmalonate] | 98.5 | 94.5 | 101 | 103 | 87.6 | 92.5 | 89.2 | 104 | 98.3 | 96.1 | 95.4 | 94.6 | 97.2 | 94 | 96.1 | 107 | 86.8 | 124 | 78.3 | 89.2
26 | COc1c(C)c2c(c(O)c1C/C=C(\C)CCC(=O)O)C(=O)OC2 [Mycophenolic acid] | 112 | 95.7 | 103 | 97.5 | 59.2 | 104 | 98.8 | 115 | 29.9 | -0.741 | 103 | 96.6 | 106 | 89.2 | 24.7 | 109 | 109 | 70.9 | 13 | 2.42

From the supplement of paper PMC8671470
